Assays:
Human alphaherpesvirus 2 = assay: Effect on herpes simplex virus HSV-2; Ineffective; format: functional, organism-based
Human alphaherpesvirus 1 = assay: Effect on herpes simplex virus HSV-1; Ineffective; format: functional, organism-based

C1C2C3CC4C1C1C2NC3C41 (configuration not stated) was tested, and the Activity (Human alphaherpesvirus 2) was “Ineffective” and the Activity (Human alphaherpesvirus 1) was “Ineffective”.
